Source: patent publication US10526337B2, “Heteroaryl derivative or pharmaceutically acceptable salt thereof, preparation method therefor, and pharmaceutical composition for preventing or treating diseases associated with PI3 kinases, containing same as active ingredient” (KOREA RESEARCH INSTITUTE OF CHEMICAL TECHNOLOGY, priority 2015, dated 2020)

Columns and labels:
Conditions in all cases: ATP=10 uM, sample concentration=100 nM
[1] = molecular target: T1, PI3 Kinase (p110α/p85α) (h) (Homo sapiens, UniProt P42336); assay: Inhibition of phosphatidylinositol 3-kinase alpha (PI3K α), pAkt Western blotting in EGF-stimulated MDA-MB-453 cells; format: cell-based
T1 construct: endogenous in cells; host or cells: MDA-MB-453
Protocol: The inhibition of phosphatidylinositol 3 kinase alpha (PI3K α) by those compounds prepared in Examples 1˜98 was investigated by the following experiment. The inhibition activity of each compound was measured in the following conditions: ATP=10 uM, and sample concentration=100 nM.
Human breast cancer cells (MDA-MB-453) cultured in DMEM (Dulbecco's Modified Eagle Medium, Hyclon, SH30243.01) supplemented with 10% fetal bovine serum (Hyclon, USA) were distributed in a 12-well plate at the density of 1,000,000 cells/well. The cells were stabilized in a 37° C. CO2 for 24 hours and then treated with each compound for 1 and half hours. The cells were treated with 10 ng/mL of EGF (Epidermal Growth Factor, 10 μg/mL; R&D, 2150-C5) to increase the intracellular activity of PI3K alpha. 5 minutes later, the medium was discarded and the cells were washed with cold PBS (phosphate buffered saline, Gibco, 14190-250). PBS was then eliminated completely by using a pipette. Western blotting was performed as described in step 2 to evaluate the intracellular PI3K alpha activity.
(§1) The stimulated cells were transferred in a 1.5 mL tube, followed by centrifugation at 3000 rpm for 1 minute. 100 μL of RIPA buffer (radioimmunoprecipitation assay buffer, 50 mM Tris-HCl, 5 mM EDTA, 150 mM NaCl, 1% NP-40, 1 mM PMSF, pH 8.0; ELPIS, Korea) was added thereto, which was stored in a 4° C. refrigerator for 12 hours. Centrifugation was performed at 4° C. at 14,000 rpm for 20 minutes. The supernatant was transferred into a new 1.5 mL tube. Protein was quantified by BCA (bicinchoninic acid) method and samples were prepared. The composition of the sample was as follows: sample buffer (ELPIS, EBA-1052) 5×, protein 10 μg, and 1× sample buffer to make the total volume 20 μL. The sample was heated at 100° C. for 5 minutes. The evaporated water vapor was condensed in a refrigerator. The liquid stained on the wall was fallen down by centrifugation for a few seconds. The sample proceeded to 10% SDS (Sodium Dodecyl Sulfate) acrylamide gel for separation. The separated protein was transferred onto PVDF (poly-vinyl difluoride) membrane, followed by reaction with pAkt (phospho protein kinase B) antibody (Ser473 or Thr308; Cell signaling, 9271s or 13038s) for 12 hours at 4° C. The membrane was washed with TBST (Tris-Buffered Saline with Tween 20, 10 mM Tris-HCl, pH 7.5, 150 mM NaCl, 0.1% Tween-20) three times for 5 minutes each, to which the secondary antibody (rabbit antibody, Santacruz, sc-2004) was added, followed by reaction at room temperature for 2 hours. The membrane was washed with TBST three times for 10 minutes each, to which ECL (enhanced chemiluminescence, Thermo, NCI34095KR) was sprayed. Bands were investigated by using LAS-3000.

[2] = molecular target: T2, PI3 Kinase (p110β/p86α) (h) (Homo sapiens, UniProt P42338); assay: Inhibition of phosphatidylinositol 3-kinase beta (PI3K β), pAkt Western blotting in LPA-stimulated PC3 cells; format: cell-based
T2 construct: endogenous in cells; host or cells: PC3
Protocol: as §1
The inhibition of phosphatidylinositol 3 kinase beta (PI3K β) by those compounds prepared in Examples 1˜98 was investigated by the following experiment. The inhibition activity of each compound was measured in the following conditions: ATP=10 uM, and sample concentration=100 nM.
Human prostate cancer cells (PC3 cells) cultured in DMEM (Dulbecco's Modified Eagle Medium, Hyclon, SH30243.01) supplemented with 10% fetal bovine serum (Hyclon, USA) were distributed in a 12-well plate at the density of 1,000,000 cells/well. The cells were stabilized in a 37° C. CO2 for 24 hours and then treated with each compound for 1 and half hours. The cells were treated with 10 ng/mL of LPA (lysophosphatidic acid, 10 μg/mL; R&D, 2150-05) to increase the intracellular activity of PI3K beta. 5 minutes later, the medium was discarded and the cells were washed with cold PBS (phosphate buffered saline, Gibco, 14190-250). PBS was then eliminated completely by using a pipette. Western blotting was performed according to the same manner as described in step 2 of Experimental Example 1 to evaluate the intracellular PI3K beta activity.

PI3 Kinase (p120γ) (h) = molecular target: T3, PI3 Kinase (p120γ) (h) (Homo sapiens, UniProt P48736); assay: Inhibition of phosphatidylinositol 3-kinase gamma (PI3K γ), pAkt Western blotting in C5a-stimulated RAW264.7 macrophages; format: cell-based, mouse
T3 construct: endogenous in cells; host or cells: RAW264.7
Procedure, shortened: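 Enzyme: PI3Kγ activity measured at ATP=10 uM with compound at 100 nM. Cellular: RAW264.7 macrophages treated with compound 1.5 h, then stimulated with 10 ng/mL C5a for 5 min; lysates (10 μg protein) probed by Western blot for pAkt (Ser473 or Thr308), ECL detection.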

[3] = molecular target: T4, PI3 Kinase (p110δ/p85α) (h) (Homo sapiens, UniProt O00329); assay: Inhibition of phosphatidylinositol 3-kinase delta (PI3K δ), pAkt Western blotting in IgM-stimulated Raji cells; format: cell-based
T4 construct: endogenous in cells; host or cells: Raji
Procedure, shortened: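 Raji cells were treated with compound for 1.5 h, then stimulated with 0.25 μg/mL IgM for 30 min to activate PI3Kδ. Lysates were Western blotted for pAkt (Ser473 or Thr308) with ECL detection. Conditions stated: ATP=10 uM, sample concentration=100 nM.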

T3 sequence (P48736 whole entry): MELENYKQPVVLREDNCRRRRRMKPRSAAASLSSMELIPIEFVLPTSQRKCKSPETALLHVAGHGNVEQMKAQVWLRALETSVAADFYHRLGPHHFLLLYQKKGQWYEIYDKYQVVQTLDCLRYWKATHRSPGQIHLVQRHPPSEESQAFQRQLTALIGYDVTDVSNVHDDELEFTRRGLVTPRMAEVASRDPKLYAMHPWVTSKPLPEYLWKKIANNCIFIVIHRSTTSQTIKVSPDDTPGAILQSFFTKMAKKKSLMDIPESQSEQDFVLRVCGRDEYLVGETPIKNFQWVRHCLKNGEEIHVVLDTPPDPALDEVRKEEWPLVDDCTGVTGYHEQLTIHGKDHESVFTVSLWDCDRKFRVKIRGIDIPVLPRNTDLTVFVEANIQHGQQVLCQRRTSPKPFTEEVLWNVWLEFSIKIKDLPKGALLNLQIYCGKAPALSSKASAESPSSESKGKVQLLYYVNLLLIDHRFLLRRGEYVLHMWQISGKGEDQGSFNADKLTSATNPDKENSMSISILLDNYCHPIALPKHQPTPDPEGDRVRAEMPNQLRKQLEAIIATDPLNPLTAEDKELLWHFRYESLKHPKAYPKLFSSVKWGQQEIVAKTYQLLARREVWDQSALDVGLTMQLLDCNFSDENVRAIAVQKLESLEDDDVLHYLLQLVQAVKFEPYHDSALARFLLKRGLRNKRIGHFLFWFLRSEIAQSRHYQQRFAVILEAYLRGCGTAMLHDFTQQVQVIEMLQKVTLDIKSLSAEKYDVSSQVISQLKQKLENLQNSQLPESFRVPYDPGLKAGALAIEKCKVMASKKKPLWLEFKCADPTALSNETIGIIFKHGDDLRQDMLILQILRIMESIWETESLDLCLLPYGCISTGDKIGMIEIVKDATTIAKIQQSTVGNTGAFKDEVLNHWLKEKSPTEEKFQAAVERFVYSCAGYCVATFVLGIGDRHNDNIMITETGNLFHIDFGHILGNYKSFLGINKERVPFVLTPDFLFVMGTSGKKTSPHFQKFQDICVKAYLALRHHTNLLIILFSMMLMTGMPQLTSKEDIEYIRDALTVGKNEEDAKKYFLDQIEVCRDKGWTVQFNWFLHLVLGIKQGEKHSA
T2 sequence (P42338 whole entry): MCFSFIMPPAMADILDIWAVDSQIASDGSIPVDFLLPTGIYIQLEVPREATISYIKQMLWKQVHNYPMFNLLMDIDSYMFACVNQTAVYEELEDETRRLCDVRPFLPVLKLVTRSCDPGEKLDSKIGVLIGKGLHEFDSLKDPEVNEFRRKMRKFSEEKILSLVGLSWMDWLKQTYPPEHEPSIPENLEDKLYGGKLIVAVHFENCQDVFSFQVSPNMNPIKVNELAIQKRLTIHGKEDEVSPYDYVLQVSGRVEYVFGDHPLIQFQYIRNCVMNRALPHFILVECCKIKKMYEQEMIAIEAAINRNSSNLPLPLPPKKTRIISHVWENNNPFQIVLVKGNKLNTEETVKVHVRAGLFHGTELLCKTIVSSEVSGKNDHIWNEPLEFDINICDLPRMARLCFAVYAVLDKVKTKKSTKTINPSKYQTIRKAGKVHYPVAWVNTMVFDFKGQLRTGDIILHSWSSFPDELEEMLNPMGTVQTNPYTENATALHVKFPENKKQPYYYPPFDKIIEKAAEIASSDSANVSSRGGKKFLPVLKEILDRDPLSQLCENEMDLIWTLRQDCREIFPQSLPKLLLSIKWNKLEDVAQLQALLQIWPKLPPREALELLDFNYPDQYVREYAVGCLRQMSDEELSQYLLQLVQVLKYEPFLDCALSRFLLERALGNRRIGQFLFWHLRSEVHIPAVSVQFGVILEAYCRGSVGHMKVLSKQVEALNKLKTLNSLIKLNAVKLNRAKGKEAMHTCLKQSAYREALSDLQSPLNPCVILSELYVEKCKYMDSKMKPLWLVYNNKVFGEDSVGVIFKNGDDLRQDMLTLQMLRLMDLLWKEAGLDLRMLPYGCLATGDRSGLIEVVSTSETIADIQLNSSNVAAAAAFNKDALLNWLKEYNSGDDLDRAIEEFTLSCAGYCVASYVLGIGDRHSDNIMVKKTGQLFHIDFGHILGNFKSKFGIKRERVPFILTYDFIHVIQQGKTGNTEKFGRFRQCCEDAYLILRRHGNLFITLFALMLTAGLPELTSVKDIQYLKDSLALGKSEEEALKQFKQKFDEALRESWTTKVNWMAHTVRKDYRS
T2 sequence (P27986 whole entry partner): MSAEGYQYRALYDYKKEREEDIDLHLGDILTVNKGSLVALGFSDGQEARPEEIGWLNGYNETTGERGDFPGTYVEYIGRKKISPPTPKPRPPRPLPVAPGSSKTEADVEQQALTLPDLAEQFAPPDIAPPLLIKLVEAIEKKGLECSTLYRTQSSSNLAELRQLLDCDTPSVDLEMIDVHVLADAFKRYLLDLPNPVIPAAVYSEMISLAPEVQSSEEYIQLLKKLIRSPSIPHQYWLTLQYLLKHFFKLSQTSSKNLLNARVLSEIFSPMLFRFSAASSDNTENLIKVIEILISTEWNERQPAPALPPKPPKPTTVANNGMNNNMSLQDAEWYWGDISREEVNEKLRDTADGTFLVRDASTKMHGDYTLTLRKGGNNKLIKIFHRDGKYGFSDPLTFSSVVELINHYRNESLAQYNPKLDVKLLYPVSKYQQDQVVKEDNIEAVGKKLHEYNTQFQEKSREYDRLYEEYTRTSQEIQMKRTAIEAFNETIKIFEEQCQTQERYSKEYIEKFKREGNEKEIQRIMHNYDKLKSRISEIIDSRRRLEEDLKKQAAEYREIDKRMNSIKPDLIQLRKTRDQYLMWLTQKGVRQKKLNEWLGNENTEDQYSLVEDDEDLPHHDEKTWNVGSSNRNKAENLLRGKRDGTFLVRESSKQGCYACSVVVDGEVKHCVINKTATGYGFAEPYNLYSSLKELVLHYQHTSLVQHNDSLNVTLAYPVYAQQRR
T4 sequence (O00329 whole entry): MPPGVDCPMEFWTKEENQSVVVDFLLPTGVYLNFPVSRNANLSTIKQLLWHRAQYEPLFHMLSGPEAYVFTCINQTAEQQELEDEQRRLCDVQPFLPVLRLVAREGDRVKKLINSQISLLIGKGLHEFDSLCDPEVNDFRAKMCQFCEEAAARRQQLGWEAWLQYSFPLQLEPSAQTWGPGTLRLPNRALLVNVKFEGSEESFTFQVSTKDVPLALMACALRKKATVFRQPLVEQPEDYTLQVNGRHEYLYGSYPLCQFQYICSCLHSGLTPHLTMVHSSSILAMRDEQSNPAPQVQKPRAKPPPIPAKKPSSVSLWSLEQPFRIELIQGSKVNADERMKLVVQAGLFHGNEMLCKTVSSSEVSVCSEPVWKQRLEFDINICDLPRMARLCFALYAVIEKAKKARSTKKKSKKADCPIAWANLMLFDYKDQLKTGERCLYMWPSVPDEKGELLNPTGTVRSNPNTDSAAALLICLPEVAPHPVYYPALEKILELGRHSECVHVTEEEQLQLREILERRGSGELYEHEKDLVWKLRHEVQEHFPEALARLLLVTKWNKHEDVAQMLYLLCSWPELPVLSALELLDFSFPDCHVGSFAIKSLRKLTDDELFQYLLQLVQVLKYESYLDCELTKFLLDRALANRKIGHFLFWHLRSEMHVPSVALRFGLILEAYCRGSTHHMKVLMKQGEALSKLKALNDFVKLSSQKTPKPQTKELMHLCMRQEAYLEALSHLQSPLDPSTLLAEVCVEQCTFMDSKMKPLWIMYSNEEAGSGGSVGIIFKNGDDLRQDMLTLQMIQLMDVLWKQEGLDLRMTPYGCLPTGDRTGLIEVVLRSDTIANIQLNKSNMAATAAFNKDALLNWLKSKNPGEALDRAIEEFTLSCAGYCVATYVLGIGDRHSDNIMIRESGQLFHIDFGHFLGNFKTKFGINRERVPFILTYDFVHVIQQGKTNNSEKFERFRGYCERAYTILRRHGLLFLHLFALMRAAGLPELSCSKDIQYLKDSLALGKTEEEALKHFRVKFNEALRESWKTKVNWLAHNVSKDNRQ
T4 sequence (P27986 whole entry partner): as the sequence (P27986 whole entry partner) above

SMILES	IC50 [1] [nM]	IC50 [2] [nM]	IC50 (PI3 Kinase (p120γ) (h)) [nM]	IC50 [3] [nM]
CC(Nc1ncnc2[nH]ccc(=O)c12)c1nc2ccc(F)cc2cc1-c1ccccn1 (stereo not shown) [Example 7, 4-((1-(6-fluoro-3-(pyridine-2-yl)quinoline-2-yl)ethyl)amino)pyrido[2,3-d]pyrimidine-5(8H)-one]	> 500	> 500	> 500	< 10
C[C@H](Nc1ncnc2[nH]ccc(=O)c12)c1nc2cccc(Cl)c2c(=O)n1-c1cccnc1 [Example 2, (S)-4-((1-(5-chloro-4-oxo-3-(pyridine-3-yl)-3,4-dihydroquinazoline-2-yl)ethyl)amino)pyrido[2,3-d]pyrimidine-5(8H)-one]	> 500	> 500	10 to 500	< 10
C[C@H](Nc1ncnc2[nH]cc(Cl)c(=O)c12)c1nc2cccc(Cl)c2c(=O)n1-c1ccccc1 [Example 22, (S)-6-chloro-4-((1-(5-chloro-4-oxo-3-phenyl-3,4-dihydroquinazoline-2-yl)ethyl)amino)pyrido[2,3-d]pyrimidine-5(8H)-one]	> 500	> 500	10 to 500	< 10
C[C@H](Nc1ncnc2[nH]cc(F)c(=O)c12)c1nc2cccc(Cl)c2c(=O)n1-c1ccccc1 [Example 21, (S)-4-((1-(5-chloro-4-oxo-3-phenyl-3,4-dihydroquinazoline-2-yl)ethyl)amino)-6-fluoropyrido[2,3-d]pyrimidine-5(8H)-one]	10 to 500	10 to 500	10 to 500	< 10
Cc1c[nH]c2ncnc(N[C@@H](C)c3cc4cccc(Cl)c4c(=O)n3-c3ccccc3)c2c1=O [Example 17, (S)-4-((1-(8-chloro-1-oxo-2-phenyl-1,2-dihydroisoquinoline-3-yl)ethyl)amino)-6-methylpyrido[2,3-d]pyrimidine-5(8H)-one]	> 500	> 500	10 to 500	10 to 500
C[C@H](Nc1ncnc2[nH]cc(Cl)c(=O)c12)c1c(Cl)c2cccc(Cl)c2c(=O)n1-c1ccccc1 [Example 24, (S)-6-chloro-4-((1-(4,8-dichloro-1-oxo-2-phenyl-1,2-dihydroisoquinoline-3-yl)ethyl)amino)pyrido[2,3-d]pyrimidine-5(8H)-one]	> 500	> 500	10 to 500	10 to 500
Nc1nc(N2CCC[C@H]2c2cc3cccc(Cl)c3c(=O)n2-c2ccccc2)c2c(=O)cc[nH]c2n1 [Example 16, (S)-2-amino-4-(2-(8-chloro-1-oxo-2-phenyl-1,2-dihydroisoquinoline-3-yl)pyrrolidine-1-yl)pyrido[2,3-d]pyrimidine-5(8H)-one]	> 500	> 500	10 to 500	10 to 500
C[C@H](Nc1ncnc2[nH]ccc(=O)c12)c1cc2ccc(F)cc2nc1-c1ccccn1 [Example 9, (S)-4-(1-(7-fluoro-2-(pyridine-2-yl)quinoline-3-yl)ethylamino)pyrido[2,3-d]pyrimidine-5(8H)-one]	> 500	> 500	10 to 500	< 10

Other lines, results leading:

IC50 [1] [nM]	IC50 [2] [nM]	IC50 (PI3 Kinase (p120γ) (h)) [nM]	IC50 [3] [nM]	SMILES
> 500	> 500	> 500	10 to 500	C[C@H](Nc1ncnc2[nH]ccc(=O)c12)c1nc2cccc(Cl)c2c(=O)n1Cc1ccccc1Cl [Example 31, (S)-4-((1-(5-chloro-3-(2-chlorobenzyl)-4-oxo-3,4-dihydroquinazoline-2-yl)ethyl)amino)pyrido[2,3-d]pyrimidine-5(8H)-one]
> 500	> 500	10 to 500	10 to 500	Nc1nc(N2CCC[C@H]2c2nn3ccc(Cl)c3c(=O)n2-c2ccccc2)c2c(=O)nc[nH]c2n1 [Example 95, (S)-7-amino-5-(2-(5-chloro-4-oxo-3-phenyl-3,4-dihydropyrrolo[2,1-f][1,2,4]triazine-2-yl)pyrrolidine-1-yl)pyrimido[4,5-d]pyrimidine-4(1H)-one]
> 500	> 500	10 to 500	< 10	C[C@H](Nc1ncnc2c1C(=O)N(C)CN2)c1c(Cl)c2cccc(Cl)c2c(=O)n1-c1ccccc1 [Example 40, (S)-5-((1-(4,8-dichloro-1-oxo-2-phenyl-1,2-dihydroisoquinoline-3-yl)ethyl)amino)-3-methyl-2,3-dihydropyrimido[4,5-d]pyrimidine-4(1H)-one]
> 500	> 500	> 500	> 500	CCCN1CNc2ncnc(N[C@@H](C)c3cc4cccc(Cl)c4c(=O)n3-c3ccccc3)c2C1=O [Example 61, (S)-5-(1-(8-chloro-1-oxo-2-phenyl-1,2-dihydroisoquinoline-3-yl)ethylamino)-3-propyl-2,3-dihydropyrimido[4,5-d]pyrimidine-4(1H)-one]
> 500	> 500	> 500	> 500	C[C@H](Nc1ncnc2c1C(=O)N(C1CC1)CN2)c1cc2cccc(Cl)c2c(=O)n1-c1ccccc1 [Example 62, (S)-5-(1-(8-chloro-1-oxo-2-phenyl-1,2-dihydroisoquinoline-3-yl)ethylamino)-3-cyclopropyl-2,3-dihydropyrimido[4,5-d]pyrimidine-4(1H)-one]
10 to 500	> 500	< 10	< 10	C[C@H](Nc1ncnc2c1C(=O)N(C)CN2)c1cc2cccc(Cl)c2c(=O)n1-c1ccccc1 [Example 38, (S)-5-((1-(8-chloro-1-oxo-2-phenyl-1,2-dihydroisoquinoline-3-yl)ethyl)amino)-3-methyl-2,3-dihydropyrimido[4,5-d]pyrimidine-4(1H)-one]
10 to 500	10 to 500	10 to 500	10 to 500	C[C@H](Nc1nc(N)nc2[nH]cnc(=O)c12)c1cc2ccccc2nc1-c1ccccc1 [Example 88, (S)-7-amino-5-((1-(2-phenylquinoline-3-yl)ethyl)amino)pyrimido[4,5-d]pyrimidine-4(1H)-one]
> 500	> 500	10 to 500	< 10	C[C@H](Nc1ncnc2[nH]ccc(=O)c12)c1nc2ccc(F)cc2c(=O)n1-c1cccc(F)c1 [Example 30, (S)-4-((1-(6-fluoro-3-(3-fluorophenyl)-4-oxo-3,4-dihydroquinazoline-2-yl)ethyl)amino)pyrido[2,3-d]pyrimidine-5(8H)-one]
